From patent publication US8084486B2, “Substituted arylpyrazoles” (Pfizer Limited, priority 2003, dated 2011)

Tested on: Ctenocephalides felis
Test: flea membrane feed screen
Design: species or system Ctenocephalides felis (cat flea)
Settings: at 30 μg/ml
Method: The flea membrane feed screen is used to measure the biological activities of the compounds claimed. The assay involves in vitro testing against Ctenocephalides felis conducted according to the following general procedure.
Fleas are cultured in vitro using dog blood. 25-30 adult Ctenocephalides felis (cat flea) were collected and placed in a test chamber (50 ml polystyrene tube with fine nylon mesh sealing the end). Citrated dog blood was prepared by adding aqueous sodium citrate solution (10 ml, 20% w/v, 20 g sodium citrate in 100 ml water) to dog blood (250 ml). Test compounds were dissolved in dimethylsulfoxide to give a working stock solution of 4 mg/ml. The stock solution (12.5 μl) was added to citrated dog blood (5 ml) to give an initial test concentration of 10 μg/ml. For testing at 30 μg/ml, working stock solutions of 12 mg/ml were prepared.
Citrated dog blood containing the test compound (5 ml, 10 μg/ml) was placed into a plastic petri dish lid, which was kept at 37° C. on a heated pad. Parafilm was stretched over the open top to form a tight membrane for the fleas to feed through. The test chamber containing the fleas was placed carefully onto the parafilm membrane and the fleas commenced feeding. […]
The fleas were observed and the percentage of fleas killed recorded. […]

N#Cc1nn(-c2c(Cl)cc(C(F)(F)F)cc2Cl)c(N)c1C1CC1(Br)Br (stereo not shown) [5-amino-3-cyano-4-(2,2-dibromocyclopropyl)-1-(2,6-dichlorophenyl-4-trifluoromethyl-)pyrazole]
activity in the ED80 flea screen: inactive
